≈ marks a conversion by molar mass, not a printed value. Where two headings read alike, the source gives them in different places.
Legend:
[1] = test system: Enterococcus faecium; assay: in vitro bacteriostatic activity, agar dilution MIC; type: cell-based; conditions: Enterococcus faecium, read-out: MIC
[2] = test system: methicillin-resistant Staphylococcus aureus ATCC 43300; assay: prevention of bacterial infection, colony count on patchoulol-coated tubes; conditions: cultured 7 days at 37°C
[3] = test system: Staphylococcus epidermidis MSSE; assay: in vitro bacteriostatic activity, agar dilution MIC; type: cell-based; conditions: Staphylococcus epidermidis, read-out: MIC
[4] = test system: Staphylococcus epidermidis ATCC 12228; assay: in vitro bacteriostatic activity, agar dilution MIC, quality control strain; type: cell-based; conditions: ATCC12228; Staphylococcus epidermidis ATCC 12228; read-out: MIC
[5] = test system: neurotoxicity of Aβ25∼35; conditions: in vitro, 0.05, 0.5, 5 µg/ml; cited from earlier work
[6] = test system: carrageenan-induced paw edema; conditions: cited from earlier work
[7] = test system: influenza virus A/PR/8/34 (H1N1); conditions: in vitro; cited from earlier work
[8] = test system: influenza virus FM1; conditions: 30 mg/kg; cited from earlier work
[9] = test system: Kurthia gibsonii; assay: in vitro bacteriostatic activity, agar dilution MIC; type: cell-based
[10] = test system: Staphylococcus saprophyticus; assay: as above; type: cell-based
[11] = test system: Streptococcus pneumoniae; assay: as above; type: cell-based
[12] = test system: Klebsiella pneumonia; assay: in vitro bacteriostatic activity, agar dilution MIC, quality control strain and summary; type: cell-based; conditions: Klebsiella pneumoniae
[13] = test system: Proteus vulgaris; assay: in vitro bacteriostatic activity, agar dilution MIC; type: cell-based; conditions: Proteus vulgaris 12-1
[14] = test system: Corynebacterium; assay: as above; type: cell-based; conditions: Coryneba cterium 12-1
[15] = test system: influenza virus A/FM/1/47 (H1N1); conditions: intragastric 40 and 80 mg/kg for successive 7 days; cited from earlier work
[16] = test system: Staphylococcus haemolyticus; assay: in vitro bacteriostatic activity, agar dilution MIC; type: cell-based
[17] = test system: Enterobacter cloacae; assay: as above; type: cell-based
[18] = test system: Staphylococcus xylosus; assay: as above; type: cell-based
[19] = test system: Escherichia coli; assay: in vitro bacteriostatic activity, agar dilution MIC, quality control strain and summary; type: cell-based
[20] = test system: Staphylococcus auricularis; assay: in vitro bacteriostatic activity, agar dilution MIC; type: cell-based

C[C@H]1CC[C@@]2(O)C(C)(C)[C@@H]3CC[C@@]2(C)[C@H]1C3 (stereo in doubt) [PC, (1R,4S,4aS,6R,8aS)-octahydro-4,8a,9,9-tetramethyl-1,6-methanonaphthalen-1(2H)-ol]
MIC ([1]; ATCC33186, Enterococcus faecium ATCC 33186): 128 µg/mL (≈ 576 µM)
MIC ([1]; Enterococcus faecium 12-7): 64 µg/mL (≈ 288 µM)
MIC ([1]; Enterococcus faecium 12-8): 64 µg/mL (≈ 288 µM)
MIC ([1]; Enterococcus faecium 12-9): 64 µg/mL (≈ 288 µM)
MIC ([1]; Enterococcus faecium 12-10): 32 µg/mL (≈ 144 µM)
MIC ([1]; Enterococcus faecium 12-11): 32 µg/mL (≈ 144 µM)
MIC ([1]; Enterococcus faecium 12-12): 64 µg/mL (≈ 288 µM)
MIC ([1]; Enterococcus faecium 12-13): 64 µg/mL (≈ 288 µM)
MIC ([1]; Enterococcus faecium 12-14): 64 µg/mL (≈ 288 µM)
MIC ([1]; Enterococcus faecium 12-15): 32 µg/mL (≈ 144 µM)
MIC ([1]; Enterococcus faecium 12-16): 32 µg/mL (≈ 144 µM)
bacterial colony numbers ([2]; 400, 200, 100 and 50 µg/ml, compared with 0 µg/ml): decrease
bacterial colony numbers ([2]; patchoulol on intraductal membranes more than or equal to 600 µg/ml): 0
MIC ([3]; Staphylococcus epidermidis MSSE 10-43): 1.5 µg/mL (≈ 6.75 µM)
MIC ([3]; Staphylococcus epidermidis MSSE 10-44): 1.5 µg/mL (≈ 6.75 µM)
MIC ([3]; Staphylococcus epidermidis MSSE 12-11): 32 µg/mL (≈ 144 µM)
MIC ([3]; Staphylococcus epidermidis MSSE 12-12): 32 µg/mL (≈ 144 µM)
MIC ([3]; Staphylococcus epidermidis MSSE 12-13): 64 µg/mL (≈ 288 µM)
MIC ([3]; Staphylococcus epidermidis MSSE 12-14): 64 µg/mL (≈ 288 µM)
MIC ([3]; Staphylococcus epidermidis MSSE 12-15): 64 µg/mL (≈ 288 µM)
MIC ([3]; Staphylococcus epidermidis MSSE 12-16): 32 µg/mL (≈ 144 µM)
MIC ([3]; Staphylococcus epidermidis MSSE 12-17): 32 µg/mL (≈ 144 µM)
MIC ([3]; Staphylococcus epidermidis MSSE 12-18): 32 µg/mL (≈ 144 µM)
MIC ([3]; Staphylococcus epidermidis MSSE 12-19): 32 µg/mL (≈ 144 µM)
MIC ([3]; Staphylococcus epidermidis MSSE 12-20): 64 µg/mL (≈ 288 µM)
MIC [4]: 64 µg/mL (≈ 288 µM)
increase of intra-cellular ROS level and [Ca^2+]I induced by Aβ25~35 [5]: inhibit the increase
content of NO, PGE-2, TNF-α in the hind paw ([6]; inflammatory rats, high dosage): significantly reduce
carrageenan-induced paw edema ([6]; rats, dose-dependent): effectively inhibit
IC50 [7]: ~2640 nM
survival rate of infected mice [8]: improve the survival rate
MIC ([9]; Kurthia gibsonii 12-1, read-out: MIC): 50 µg/mL (≈ 225 µM)
MIC ([9]; Kurthia gibsonii 12-2): 50 µg/mL (≈ 225 µM)
MIC ([10]; Staphylococcus saprophyticus 12-2): 100 µg/mL (≈ 450 µM)
MIC ([10]; Staphylococcus saprophyticus12-3): 100 µg/mL (≈ 450 µM)
MIC ([10]; Staphylococcus saprophyticus, Staphylococcus saprophyticus12-1, read-out: MIC): 100 µg/mL (≈ 450 µM)
MIC ([11]; ATCC49619, Streptococcus pneumonia ATCC 49619): 200 µg/mL (≈ 899 µM)
MIC ([11]; Streptococcus pneumonia 12-6): 100 µg/mL (≈ 450 µM)
MIC ([11]; Streptococcus pneumonia 12-7): 200 µg/mL (≈ 899 µM)
MIC ([11]; Streptococcus pneumonia 12-8): 100 µg/mL (≈ 450 µM)
MIC ([11]; Streptococcus pneumonia 12-9): 100 µg/mL (≈ 450 µM)
MIC ([11]; Streptococcus pneumonia 12-10): 200 µg/mL (≈ 899 µM)
MIC ([11]; Streptococcus pneumoniae 12-1): 200 µg/mL (≈ 899 µM)
MIC ([11]; Streptococcus pneumoniae 12-2): 100 µg/mL (≈ 450 µM)
MIC ([11]; Streptococcus pneumoniae 12-3): 200 µg/mL (≈ 899 µM)
MIC ([11]; Streptococcus pneumoniae 12-4): 200 µg/mL (≈ 899 µM)
MIC ([11]; Streptococcus pneumoniae 12-5): 100 µg/mL (≈ 450 µM)
MIC ([12]; ATCC700603, Klebsiella pneumonia ATCC 700603, read-out: MIC): > 768 µg/mL
MIC ([12]; summary, Klebsiella pneumonia ESBLs^-/ESBLs^+, read-out: MIC values): ≥ 768 µg/mL
MIC [13]: 100 µg/mL (≈ 450 µM)
MIC [14]: 12.5 µg/mL (≈ 56.2 µM)
survival rate of nonlethal and lethal model mice [15]: obviously improve the survival rate
MIC [16]: 100 µg/mL (≈ 450 µM)
MIC ([17]; Enterobacter cloacae 12-1, read-out: MIC): 50 µg/mL (≈ 225 µM)
MIC ([17]; Enterobacter cloacae 12-2): 50 µg/mL (≈ 225 µM)
MIC ([18]; Staphylococcus xylosus 12-1 (first line, r17), read-out: MIC): 100 µg/mL (≈ 450 µM)
MIC ([18]; Staphylococcus xylosus 12-1 (second line, r18)): 100 µg/mL (≈ 450 µM)
MIC ([19]; ATCC25922, Escherichia coli ATCC 25922, read-out: MIC): 768 µg/mL (≈ 3450 µM)
MIC ([19]; summary, Escherichia coli ESBLs /ESBLs^+, read-out: MIC values): ≥ 768 µg/mL
MIC ([20]; Staphylococcus auricularis (first line, r19)): 25 µg/mL (≈ 112 µM)
MIC ([20]; Staphylococcus auricularis (second line, r20)): 50 µg/mL (≈ 225 µM)

Reference: patent publication EP2826473A1, “NOVEL USE OF PATCHOULOL” (Chengdu Huasun Group Inc., Ltd., priority 2012, dated 2013)
